According to patent US20230146870A1, “METHOD TO QUANTIFY AFFINITY AND SELECTIVITY OF SMALL MOLECULES FOR PROTEINS IN LIVING CELLS” (Ohio State Innovation Foundation, priority 2021, published 2023):
Where “and” joins values, the source holds several entries; their conditions need not be identical. Identical values can stand only once. Like-named read-outs stand apart in the source and are kept apart here.

What was measured:
[1] = system: cellular microtubules (HeLa cells); test: Pilot screen of NCI Diversity Set VI: inhibition of binding of PB-GABA-Taxol, with dose-response validation
[2] = system: microtubule network of HeLa cells (mScarlet-α-Tubulin); test: Confocal microscopy of HeLa cells transfected with mScarlet-α-Tubulin; assay type: cell-based; settings: 1 h at 37° C.
Method: (FIG. 28C) Characterization of fluorescent microtubule phenotypes in HeLa cells transiently transfected with mScarlet-a-Tubulin and treated with the microtubule modulators (1 h at 37° C.). […] Scale bars=10 μm.
Cells were washed with PBS before treatment with PB-GABA-Taxol (100 nM) and (±)-verapamil hydrochloride (100 μM), with or without paclitaxel (10 μM) as a competitor, in phenol red-free DMEM supplemented with 10% FBS. Cells were incubated at 37° C. for 3 h prior to imaging by confocal microscopy. For experiments using HeLa cells transfected with mScarlet-α-tubulin, transient transfection was performed using a Invitrogen Lipofectamine 3000 Transfection kit (Thermo, L3000-075). Transfection used a 1× dose of lipid in OptiMEM (4% FBS) for 18 hours before washing of cells with PBS and treatment with the microtubule modulator for 1 h at 37° C.

[3] = system: microtubules in living HeLa cells; test: Allosteric modulator assay with PB-GABA-Taxol in living HeLa cells (cellular Kb, α); settings: PB-GABA-Taxol 1.5 μM, verapamil 100 μM, 3 h, 37° C.
Excerpt: In this model, two compounds that engage tubulin at different binding sites influence the binding of each other through cooperativity. […] Smaller cooperativity factors (α) represent stronger effects on binding of the orthosteric probe. For these allosteric modulators, the apparent cellular affinity was defined as Kb, and the mathematical relationship between Kb and α is provided (equation 3).
The experimental method for allosteric binding assays was identical to the competition binding assays described previously. However, because it is inaccurate to describe an allosteric modulator with a competitive inhibitory constant (Ki), we used an allosteric modulator model (Kb) for data analysis. […] The observed occupancy of the orthosteric ligand is defined as KApp and is determined by the equilibrium dissociation constant of the orthosteric ligand (Kd), the concentration of allosteric ligand, its affinity for the receptor (Kb), and the strength by which the allosteric ligand affects receptor binding to the orthosteric ligand as defined by the cooperativity factor (a).

[4] = cited from earlier work
[5] = system: T1, microtubules in living HeLa cells; test: Saturation binding of PB-GABA-Taxol in living HeLa cells by flow cytometry
T1 construct: rows headed: PB-GABA-Taxol molecules/cell at saturation; other: calibration beads, flow cytometry; other: HeLa cell volume 4.5; cellular Kd of PB-GABA-Taxol for microtubules; other: HeLa cells, 4% FBS, 37° C., verapamil 100 μM, 3 h; other: 10% FBS vs
Method: To quantify the affinity of PB-GABA-Taxol for microtubules in living cells (cellular Kd), we developed the saturation binding method shown in FIG. 3. In this assay the cellular Kd was measured by varying the concentration of the fluorescent probe added to cells at equilibrium as established by kinetic assays of probe uptake. Total binding of this probe to specific and non-specific sites in cells in the presence of the efflux inhibitor verapamil was determined by flow cytometry. Non-specific binding was quantified separately by addition of excess paclitaxel with the probe under the same conditions. Subtraction of the linear non-specific binding contribution from the total binding curve was used analyze specific binding of the probe to tubulin of microtubules. […]
OptiMEM medium containing 4% FBS was prepared as 2× stock solutions of different concentrations of PB-GABA-Taxol by serial dilution (final [DMSO]=1.2%). […] The percentage of non-specific binding was determined as non-specific binding divided by total binding. The signal window (SW) was calculated as previously described^2: SW=[(mean top (maximum) signal−mean bottom (minimum) signal)−(3)*(SD top signal+SD bottom signal)]/(SD top signal), where SD=standard deviation.

HeLa cells [6] = test: Cellular viability of trypsinized HeLa cells under binding assay conditions; assay type: cell-based; settings: 180 min
Method: Samples contained PB-GABA-Taxol (1.5 μM) unless otherwise noted. Viability was analyzed by flow cytometry at the time points shown. Dead cells were identified by changes in light scattering and staining with propidium iodide (3 μM). Changes in viability were less than 10% at 180 min under the conditions used for saturation binding and competitive binding assays, even in the presence of 100 μM paclitaxel.
For saturation binding assays, HeLa cells were incubated with PB-GABA-Taxol at 37° C. for 180 min in the presence of verapamil (100 μM).

[7] = biological target: crosslinked / purified microtubules; settings: previously reported, cited from earlier work
HeLa cells [8] = test: Time to equilibrium / cellular uptake of PB-GABA-Taxol by flow cytometry; settings: probe 1.5 μM
Method: Tubes were incubated in a plate shaker, and at each time point 150 pL of cells were analyzed, in triplicate, in wells containing propidium iodide (3 μM final concentration) to identify live cells by flow cytometry. Median pacific blue fluorescence was plotted as a function of time and half-time measurements were determined using an Exponential One-phase association model (GraphPad Prism 9).

[9] = system: Taxol binding site in living cells; settings: previously reported; read-out: Ki by confocal microscopy; cited from earlier work
[10] = system: microtubules (taxane binding site) in living HeLa cells; test: Competition binding assay with PB-GABA-Taxol in living HeLa cells (cellular Ki); settings: for Ki: read-out: cellular Ki, PB-GABA-Taxol 1.5 μM, verapamil 100 μM, 37° C., 4% FBS, 3 h
Method: In this assay the cellular Kd was measured by varying the concentration of the fluorescent probe added to cells at equilibrium as established by kinetic assays of probe uptake. Total binding of this probe to specific and non-specific sites in cells in the presence of the efflux inhibitor verapamil was determined by flow cytometry. Non-specific binding was quantified separately by addition of excess paclitaxel with the probe under the same conditions. Subtraction of the linear non-specific binding contribution from the total binding curve was used analyze specific binding of the probe to tubulin of microtubules. Measurement of this cellular dissociation constant under equilibrium conditions further allowed conversion of the half-maximal inhibitory concentration (IC50) of unlabeled compounds into cellular inhibitory constants using an adaptation of the Cheng-Prusoff equation^44 for competitive modulators (Ki) or the allosteric equation^45 for non-competitive modulators (Kb and the cooperativity factor α) as implemented by GraphPad Prism.

[11] = Cytotoxicity assay, 48 h, flow cytometry; assay type: cell-based; settings: human, HeLa cells
Method: Trypsinized HeLa cells were resuspended at 40,000 cells/mL in DMEM medium containing 10% FBS and seeded at 8,000 cells/200 μL/well in a treated 96-well plate. The cells were incubated for 16 h at 37° C. The medium was removed and DMEM medium containing 10% FBS treated with compounds (prepared as 3-fold serial dilutions, 0.1% DMSO content) was added. Cells were treated for 48 h at 37° C. before removal of treated medium, washing cells with PBS (100 μL), and addition of Trypsin-EDTA (50 μL) for 10 min at 37° C. Trypsin was neutralized and cells resuspended by addition of 100 μL of complete medium treated with propidium iodide (final concentration 3 μM). Cellular viabilities were analyzed by gating of cells that lack fluorescence of propidium iodide by flow cytometry.

[12] = biological target: PKC 11 (C1B domain, tyrosine at the 22 position); settings: phosphatidyl serine present, read-out: binding affinity (Kd) for DAG, cited from earlier work
albumin = albumin (Homo sapiens, UniProt P02768); settings: cited from earlier work
albumin, sequence (P02768 25-609, species assumed): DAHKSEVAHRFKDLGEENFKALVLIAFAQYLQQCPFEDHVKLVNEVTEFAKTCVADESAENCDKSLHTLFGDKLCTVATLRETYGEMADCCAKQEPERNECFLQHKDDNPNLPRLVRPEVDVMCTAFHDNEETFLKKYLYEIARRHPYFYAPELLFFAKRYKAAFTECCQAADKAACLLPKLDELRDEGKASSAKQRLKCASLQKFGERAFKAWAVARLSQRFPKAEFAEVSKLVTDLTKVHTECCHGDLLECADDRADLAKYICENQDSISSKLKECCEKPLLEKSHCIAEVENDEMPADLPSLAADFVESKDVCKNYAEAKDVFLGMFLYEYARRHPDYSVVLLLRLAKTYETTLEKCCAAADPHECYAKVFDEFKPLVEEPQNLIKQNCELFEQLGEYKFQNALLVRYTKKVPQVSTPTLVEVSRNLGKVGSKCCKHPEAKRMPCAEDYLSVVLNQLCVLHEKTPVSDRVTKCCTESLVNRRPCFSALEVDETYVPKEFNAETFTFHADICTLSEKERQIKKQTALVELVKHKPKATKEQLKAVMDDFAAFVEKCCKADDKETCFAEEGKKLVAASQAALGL

For `NC(=O)c1cc2c3ccccc3ccn2c1-c1ccccc1` [NSC 93427], the “inhibition of cellular fluorescence” value ([1]; 10 μM) was “nearly complete inhibition”, the IC50 ([1]; HeLa cells, PB-GABA-Taxol) was less than 1000 nM and the fluorescent microtubule phenotype [2] was “dose-dependent disruption of microtubules”. For the same compound, the “cooperativity factor α” value [3] was 0.02 and the Kb ([3]; read-out: cellular Kb (allosteric modulator)) was 485 nM and 483 nM.
In the case of `O=C(O)c1cc2cc(F)c(O)c(F)c2oc1=O` [Pacific Blue™], the “phenol pKa” value [4] is given as 3.7.
For `CC(=O)O[C@H]1C(=O)[C@]2(C)[C@@H](OC(=O)CCCNC(=O)c3cc4cc(F)c(O)c(F)c4oc3=O)C[C@H]3OC[C@@]3(OC(C)=O)[C@H]2[C@H](OC(=O)c2ccccc2)[C@]2(O)C[C@H](OC(=O)[C@H](O)[C@@H](NC(=O)c3ccccc3)c3ccccc3)C(C)=C1C2(C)C` [PB-GABA-Taxol], the “reduction of apparent affinity by ligand depletion in 10% FBS” value ([5]; 10% FBS vs 4% or 1% FBS) was 2 fold, the Kd ([5]; HeLa cells, 4% FBS, 37° C., verapamil 100 μM, 3 h, read-out: cellular Kd of PB-GABA-Taxol for microtubules) was 1700 ± 400 nM and the cells remaining viable (HeLa cells [6]; 37° C., verapamil 100 μM) was greater than 90%. For the same compound, the changes in viability (HeLa cells [6]; binding assay conditions, even with 100 μM paclitaxel) was “less than 10%”, the Kd ([7]; read-out: biochemical Kd for microtubules) was 265 nM and the “half-time (t1/2) to equilibration of cellular fluorescence” value (HeLa cells [8]; 37° C., verapamil 100 μM) was 0.55 h. For the same compound, the “half-time (t1/2) to equilibration of cellular fluorescence” value (HeLa cells [8]; room temperature (23° C.)) was 1.45 h.
For `C/C(=C\c1csc(C)n1)[C@@H]1C[C@@H]2O[C@]2(C)CCC[C@H](C)[C@H](O)[C@@H](C)C(=O)C(C)(C)[C@@H](O)CC(=O)N1` [ixabepilone], the Ki [9] is listed as 7.6 ± 1.6 nM and the Ki [10] is listed as 10 nM.
With `COc1cc2c(c(OC)c1OC)-c1ccc(OC)c(=O)cc1[C@@H](NC(C)=O)CC2` [colchicine] the IC50 at 48 h ([11]; with verapamil 25 µM, verapamil 25 μM) was 13 ± 0.4 nM and the IC50 at 48 h ([11]; without verapamil) was 20 ± 8 nM.
In the case of diacylglycerol [DAG], the Kd ([12]; tyrosine at the 22 position) is given as 780000 nM and the Kd ([12]; tyrosine changed into tryptophan) is given as 24000 nM.
For `CC(=O)O[C@H]1C(=O)[C@@]2(C)[C@H]([C@H](OC(=O)c3ccccc3)[C@]3(O)C[C@H](OC(=O)[C@H](O)[C@@H](NC(=O)c4ccccc4)c4ccccc4)C(C)=C1C3(C)C)[C@]1(OC(C)=O)CO[C@@H]1C[C@@H]2O` [paclitaxel], the fluorescent microtubule phenotype [2] is given as “increased numbers of microtubule fibers”, the Ki ([7]; read-out: biochemical Ki for microtubules) is given as 19 nM and 27 nM and 31 nM and the Kd (albumin) is given as 120 nM. For the same compound, the “decrease of apparent affinity vs incubation for 3 h or 4 h” value ([10]; incubation 1 h) was 3 fold, the “decrease of apparent affinity vs incubation for 3 h or 4 h” value ([10]; incubation 2 h) was 2 fold and the “underestimation of cellular Ki” value ([10]; probe concentration 3 μM) was 12 fold. For the same compound, the Ki [10] was 22 nM, the “decrease of apparent affinity (cellular Ki) by ligand depletion” value ([10]; σ=15% (150 nM β-tubulin/well)) was 2.3 fold and the “decrease of apparent affinity (cellular Ki) by ligand depletion” value ([10]; σ=30% (300 nM β-tubulin/well)) was 4.7 fold.
